# Measured values published in PMC8705538, “Discovery of SARS-CoV-2 Nsp14 and Nsp16 Methyltransferase Inhibitors by High-Throughput Virtual Screening” (Pharmaceuticals, 2021).
# Assays:
# SARS-CoV-2 nsp14 = SARS-CoV-2 nsp14 (Severe acute respiratory syndrome coronavirus 2, UniProt P0DTD1); assay: biochemical; conditions: 100 μM
# SARS-CoV-2 nsp16/nsp10 = SARS-CoV-2 nsp16/nsp10 (Severe acute respiratory syndrome coronavirus 2, UniProt P0DTD1); assay: biochemical; conditions: 100 μM
Compound,"Percent inhibition at 100 μM, nsp14 (SARS-CoV-2 nsp14) [%]","Percent inhibition at 100 μM, nsp16 (SARS-CoV-2 nsp16/nsp10) [%]"
Cc1nn(C)c2ncc(NC(=O)c3ccccc3-c3ncc(-c4ccc(F)cc4)o3)cc12 [ZINC000032754717],14 ±6,-24 ±9
Cc1[nH]c(-c2ccccc2)nc1C(=O)NCc1ccc2[nH]c(=O)[nH]c2c1 [ZINC000680227150],19 ±7,23 ±5
O=C(Cc1csc(SCC(=O)c2ccccc2)n1)Nc1ccccc1 [Compound 005-296-365],27 ±2,-17 ±4
Cc1cc(-c2ccc(C(=O)NCC(N)=O)cc2)nc(N2CCOCC2)n1 [ZINC000534574506],3 ±3,17 ±8
O=C(CCc1nc2cc(Cl)ccc2[nH]1)N1CC[C@H](n2c(=O)[nH]c3cccnc32)C1 [ZINC1548405210],6 ±2,15 ±2
O=C(CN1C(=O)c2ccccc2N2C(=O)c3ccccc3C12)N1CCc2c([nH]c3ccccc23)C1 (centres unmarked) [ZINC000604419204],5 ±11,-3 ±5
Nc1ncnc2c1ncn2[C@@H]1O[C@H](COS(=O)(=O)NC(=O)c2ccccc2O)[C@@H](O)[C@H]1O [ZINC000028567519],28 ±2,14 ±3
O=C(CCc1cncnc1)N1CCCC(c2nc3ccccc3s2)C1 (centres unmarked) [Compound 046-723-388],5 ±3,-45 ±13
Cc1ccc(NC(=O)Cn2c(=O)n(CC(=O)NCc3ccco3)c(=O)c3ccccc32)cc1C [ZINC000009617688],10 ±6,-8 ±4
CCN(Cc1ccncc1)C(=O)CC1C(=O)NCCN1CCCc1ccccc1 (centres unmarked) [ZINC000011821342],5 ±5,17 ±11
O=C(CCc1c[nH]c2ccccc12)N1CCCC1c1ccc[nH]1 (centres unmarked) [ZINC000019688789],2 ±0,-10 ±1
Cn1cc(CCC(=O)N2CCCC(c3nc4ccccc4s3)C2)cn1 (centres unmarked) [Compound 046-706-934],5 ±3,-113 ±16
CC1(O)Cc2n[nH]c(O)c2C(c2ccccc2)C1 (centres unmarked) [ZINC000035326963],4 ±8,-2 ±6
NS(=O)(=O)c1ccc(NC2=NC(=O)C(CC(=O)O)S2)cc1 (centres unmarked) [ZINC000001797008],0 ±2,-35 ±10
O=C(CCn1cncn1)N1CCC(c2nc3ccccc3s2)CC1 [Compound 009-436-708],2 ±1,-114 ±6
CC(=O)Nc1ccn(C2OC(CO)C(O)C2O)c(=O)n1 (centres unmarked) [ZINC000001078602],-15 ±5,-9 ±1
O=C(NCc1cccnc1)C1CC(NCc2c(F)cccc2F)CN1Cc1ccccc1 (centres unmarked) [ZINC000020999776],-2 ±4,8 ±5
CC(=O)c1cnc(NC(C)c2nnc(CC(=O)O)[nH]2)nc1C (centres unmarked) [ZINC1772709012],16 ±13,32 ±8
NS(=O)(=O)c1ccc(NC(=O)COC(=O)c2n[nH]c3ccccc23)cc1 [ZINC000005360401],-15 ±7,3 ±1
O=C(c1ccc2c3c([nH]c2c1)CCCC3)N1CCC[C@H]1c1nc(-c2ccncc2)no1 [ZINC000952966781],11 ±10,24 ±5
CC(C)N(CC1OC(n2cnc3c(N)ncnc32)C(O)C1O)C1CC(CCc2nc3cc(C(C)(C)C)ccc3[nH]2)C1 (centres unmarked) [ZINC000100074350],30 ±4,68 ±7
O=C(CCc1ccncc1)NC(c1ccccc1)C1CC(O)C1 (centres unmarked) [ZINC000252528037],13 ±2,36 ±3
